Data: US5817840A, “Water soluble taxol derivatives” (The Scripps Research Institute, priority 1997, dated 1998)
Where two headings read alike, the source gives them in different places.

What was measured:
[1] = test system: PC-3 (human prostate adenocarcinoma); assay: Cytotoxicity, Example 8; type: cell-based
Method: (§1) Tumor or normal cells were cultured in 96-well plates with the test compound in 200 μl of RPMI supplemented with 10% fetal bovine serum (Hyclone, Salt Lake City, Utah) at 37° C. in a humidified atmosphere containing 5% CO2 in air for 72 hours. Sulforhodamine B dissolved in 1% acetic acid was added, and the plates were incubated for 30 minutes at ambient temperature, washed with 1% acetic acid, and blotted. To the air-dried plates were added 100 μl of […] unbuffered TRIS base (pH 10.5) with shaking. The optical densities of the plates were measured with a microplate reader (Molecular Devices Thermomax) at 540 nm. The concentration of compound required to reduce the absorbance to 50% of control samples was recorded as IC50.
(§2) NHDF: Normal human dermal fibroblast (available from Clouelics Corp., San Diego, Calif.); HLF-1: Normal human diploid lung; W1-38; Normal human diploid lung; CHO; Chinese hamster ovary; SK-MEL-28: Melanoma; CAPAN-1: Pancreatic carcinoma; H322: lung carcinoma; MCF-7; Breast carcinoma; BT-549; Human breast ductal carcinoma; OVCAR-3: Human ovarian carcinoma; HT-29: Human adenocarcinoma, colon; SIHA: Human squamous carcinoma crvx; 786-0: Human perirenal cell adenocarci; PC-3: Human prostate adenocarcinoma; HL-60: Human promyelomic leukemia; MOLT-4: Human T-cell leukemia. All cell lines except NHDF are available from the American Tissue Culture Collection, Rockville, Md.

[2] = test system: HT-29 (human adenocarcinoma, colon); assay: Cytotoxicity, Example 8; type: cell-based
Method: as §1, §2

[3] = test system: W1-38 (normal human diploid lung); assay: Cytotoxicity, Example 8; type: cell-based
Method: as §1, §2

[4] = test system: 786-0 (human perirenal cell adenocarci); assay: Cytotoxicity, Example 8; type: cell-based
Method: as §1, §2

[5] = test system: OVCAR-3 (human ovarian carcinoma); assay: Cytotoxicity, Example 8; type: cell-based
Method: as §1, §2

[6] = test system: CAPAN-1 (pancreatic carcinoma); assay: Cytotoxicity, Example 8; type: cell-based; details: Homo sapiens
Method: as §1, §2

[7] = test system: S1HA (human squamous carcinoma crvx); assay: Cytotoxicity, Example 8; type: cell-based
Method: as §1, §2

SK-MEL-28 (melanoma) = assay: Cytotoxicity, Example 8; type: cell-based; details: Homo sapiens
Method: as §1, §2

MCF-7 (breast carcinoma) [8] = assay: Cytotoxicity, Example 8; type: cell-based; details: Homo sapiens
Method: as §1, §2

[9] = test system: HLF-1 (normal human diploid lung); assay: Cytotoxicity, Example 8; type: cell-based
Method: as §1, §2

[10] = test system: NHDF (normal human dermal fibroblast); assay: Cytotoxicity, Example 8; type: cell-based
Method: as §1, §2

[11] = test system: CHO (Chinese hamster ovary); assay: Cytotoxicity, Example 8; type: cell-based; details: Cricetulus griseus
Method: as §1, §2

H322 (lung carcinoma) [12] = assay: Cytotoxicity, Example 8; type: cell-based
Method: as §1, §2

[13] = test system: BT-549 (human breast ductal carcinoma); assay: Cytotoxicity, Example 8; type: cell-based
Method: as §1, §2

[14] = test system: PC-3 (prostate carcinoma); assay: Cytotoxicity (sulphorhodamine B), cancer cell line, Table 1B; type: cell-based; details: Homo sapiens, 72 h
[15] = test system: BALB/c 3T3 (normal mouse embryo); assay: Cytotoxicity (sulphorhodamine B), normal cell line, Table 1B; type: cell-based; details: BALB/c3T3, 72 h
[16] = test system: OVCAR-3 (ovarian carcinoma); assay: Cytotoxicity (sulphorhodamine B), cancer cell line, Table 1B; type: cell-based; details: Homo sapiens, OVCAR-3, 72 h
[17] = test system: RPMI-7666 (normal human PBLs); assay: Cytotoxicity (sulphorhodamine B), normal cell line, Table 1B; type: cell-based; details: 72 h
[18] = test system: MOLT-4 (T-cell leukaemia); assay: Cytotoxicity (sulphorhodamine B), cancer cell line, Table 1B; type: cell-based; details: Homo sapiens, MOLT-4, 72 h
HT-29 (colon carcinoma) = assay: as above; type: cell-based; details: Homo sapiens, HT-29, 72 h
L1210 (mouse leukaemia) = assay: as above; type: cell-based; details: L1210, 72 h
[19] = test system: 786-0 (renal cell carcinoma); assay: as above; type: cell-based; details: Homo sapiens, 786-0, 72 h
[20] = test system: BT-549 (breast carcinoma); assay: as above; type: cell-based; details: Homo sapiens, BT-549, 72 h
SK (melanoma) = assay: as above; type: cell-based; details: 72 h
[21] = test system: broad spectrum of cell lines; assay: Cytotoxicity against a broad spectrum of cell lines (overall); details: three-day exposure; compared with taxol
Method: The protaxols synthesized in this study were tested against a broad spectrum of cell lines ranging from the multiple-drug resistant ovarian (OVCAR-3) to lung (H-322) and leukemia (MOLT-4) cells in order to assess cytotoxicity, cell-type selectivity, and duration of action.
The cytotoxicities were determined using the sulphorhodamine B assay method (Skehan, P. et al. J. Nat. Canc. Inst. 82, 1107 (1990)).

[22] = test system: CHO (normal human mammary); assay: Cytotoxicity (sulphorhodamine B), normal cell line, Table 1B; type: cell-based; details: Homo sapiens, 72 h
SIHA (cervix carcinoma) = assay: Cytotoxicity (sulphorhodamine B), cancer cell line, Table 1B; type: cell-based; details: Homo sapiens, SiHa, 72 h
Capan-1 (pancreatic) = assay: as above; type: cell-based; details: Homo sapiens, CAPAN-1, 72 h
[23] = test system: HL-60 (promyel carcinoma); assay: as above; type: cell-based; details: Homo sapiens, HL-60, 72 h
[24] = test system: CHO (Chinese hamster ovary); assay: Cytotoxicity (sulphorhodamine B), normal cell line, Table 1B; type: cell-based; details: Cricetulus griseus, 72 h
NHDF (normal human skin) = assay: as above; type: cell-based; details: 72 h
H322 (lung carcinoma) [25] = assay: Cytotoxicity (sulphorhodamine B), cancer cell line, Table 1B; type: cell-based; details: NCI-H322, 72 h
MCF-7 (breast carcinoma) [26] = assay: as above; type: cell-based; details: Homo sapiens, MCF7, 72 h
[27] = test system: UCLA-P-3 (lung carcinoma); assay: as above; type: cell-based; details: Homo sapiens, UCLA P-3, 72 h

CC(=O)O[C@H]1C(=O)[C@@]2(C)[C@H]([C@H](OC(=O)c3ccccc3)[C@]3(O)C[C@H](OC(=O)[C@H](OC(=O)CSCC(=O)O)[C@@H](NC(=O)c4ccccc4)c4ccccc4)C(C)=C1C3(C)C)[C@]1(OC(C)=O)CO[C@@H]1C[C@@H]2O [Compound 4, 2'-thiodiglycolic taxol]
IC50 ([1]; 72 h): 100 µM
IC50 ([2]; HT-29, 72 h): 0.19 µM
IC50 ([3]; W138, 72 h): 13 µM
IC50 ([4]; 786-0, 72 h): 6.3 µM
IC50 ([5]; OVCAR-3, 72 h): 0.39 µM
IC50 ([6]; CAPAN-1, 72 h): 0.19 µM
IC50 ([7]; 72 h): 50 µM
IC50 (SK-MEL-28 (melanoma); SK-MEL-28, 72 h): 100 µM
IC50 (MCF-7 (breast carcinoma) [8]; MCF7, 72 h): 100 µM
IC50 ([9]; HLF1, 72 h): 3.1 µM
IC50 ([10]; 72 h): 50 µM
IC50 ([11]; 72 h): 50 µM
IC50 (H322 (lung carcinoma) [12]; NCI-H322, 72 h): 3.1 µM
IC50 ([13]; BT-549, 72 h): 16 µM

CC(=O)O[C@H]1C(=O)[C@@]2(C)[C@H]([C@H](OC(=O)c3ccccc3)[C@]3(O)C[C@H](OC(=O)[C@H](OC(=O)OCCS(=O)(=O)c4ccc([N+](=O)[O-])cc4)[C@@H](NC(=O)c4ccccc4)c4ccccc4)C(C)=C1C3(C)C)[C@]1(OC(C)=O)CO[C@@H]1C[C@@H]2O [Compound 9]
IC50 [14]: 1 µM
IC50 [15]: 10 µM
IC50 [16]: 1 µM
IC50 [17]: 100 µM
IC50 [18]: 0.001 µM
IC50 (HT-29 (colon carcinoma)): 0.1 µM
IC50 (L1210 (mouse leukaemia)): 1 µM
IC50 [19]: 1 µM
IC50 [20]: 0.1 µM
IC50 (SK (melanoma)): 10 µM
cytotoxicity (in words) [21]: lower cytotoxicities
IC50 [22]: 100 µM
IC50 (SIHA (cervix carcinoma)): 10 µM
IC50 (Capan-1 (pancreatic)): 1 µM
IC50 [23]: 0.1 µM
IC50 [24]: 100 µM
IC50 (NHDF (normal human skin)): 1 µM
IC50 (H322 (lung carcinoma) [25]): 1 µM
IC50 (MCF-7 (breast carcinoma) [26]): 10 µM
IC50 [27]: < 0.001 µM

CC(=O)O[C@H]1C(=O)[C@@]2(C)[C@H]([C@H](OC(=O)c3ccccc3)[C@]3(O)C[C@H](OC(=O)[C@H](OC(=O)COCC(=O)O)[C@@H](NC(=O)c4ccccc4)c4ccccc4)C(C)=C1C3(C)C)[C@]1(OC(C)=O)CO[C@@H]1C[C@@H]2O [Compound 3]
IC50 ([1]; 72 h): 65.1 µM
IC50 ([2]; HT-29, 72 h): 0.01 µM
IC50 ([3]; W138, 72 h): 51.9 µM
IC50 ([4]; 786-0, 72 h): 0.153 µM
IC50 ([5]; OVCAR-3, 72 h): 0.098 µM
IC50 ([6]; CAPAN-1, 72 h): 0.098 µM
IC50 ([7]; 72 h): 1120 µM
IC50 (SK-MEL-28 (melanoma); SK-MEL-28, 72 h): 100 µM
IC50 (MCF-7 (breast carcinoma) [8]; MCF7, 72 h): 357 µM
IC50 ([9]; HLF1, 72 h): 59.5 µM
IC50 ([10]; 72 h): 103 µM
IC50 ([11]; 72 h): 101 µM
IC50 (H322 (lung carcinoma) [12]; NCI-H322, 72 h): 205 µM
IC50 ([13]; BT-549, 72 h): 51.4 µM

CC(=O)O[C@H]1C(=O)[C@@]2(C)[C@H]([C@H](OC(=O)c3ccccc3)[C@]3(O)C[C@H](OC(=O)[C@H](OC(=O)C[S+]([O-])CC(=O)O)[C@@H](NC(=O)c4ccccc4)c4ccccc4)C(C)=C1C3(C)C)[C@]1(OC(C)=O)CO[C@@H]1C[C@@H]2O (stereo partly shown) [Example 3a]
IC50 ([1]; PC-3, 72 hours, read-out: IC50): 50 µM
IC50 ([2]; HT-29, 72 hours, read-out: IC50): 0.098 µM
IC50 ([3]; W138, W1-38, 72 hours, read-out: IC50): 25 µM
IC50 ([4]; 786-0, 72 hours, read-out: IC50): 0.15 µM
IC50 ([5]; OVCAR-3, 72 hours, read-out: IC50): 0.098 µM
IC50 ([6]; Capan-1, 72 hours, read-out: IC50): 0.87 µM
IC50 ([7]; S1HA, 72 hours, read-out: IC50): 25 µM
IC50 (SK-MEL-28 (melanoma); SK-MEL-28, 72 hours, read-out: IC50): 100 µM
IC50 (MCF-7 (breast carcinoma) [8]; MCF7, MCF-7, 72 hours, read-out: IC50): 39.2 µM
IC50 ([9]; HLF1, HLF-1, 72 hours, read-out: IC50): 25 µM
IC50 ([10]; 72 hours, read-out: IC50): 50 µM
IC50 ([11]; CHO, 72 hours, read-out: IC50): 100 µM
IC50 (H322 (lung carcinoma) [12]; NCI-H322, H322, 72 hours, read-out: IC50): 8.3 µM
IC50 ([13]; BT-549, 72 hours, read-out: IC50): 0.098 µM

COC(=O)CS(=O)(=O)CC(=O)O[C@@H](C(=O)O[C@H]1C[C@@]2(O)[C@@H](OC(=O)c3ccccc3)[C@@H]3[C@]4(OC(C)=O)CO[C@@H]4C[C@H](O)[C@@]3(C)C(=O)[C@H](OC(C)=O)C(=C1C)C2(C)C)[C@@H](NC(=O)c1ccccc1)c1ccccc1 [Compound 6]
IC50 [14]: 1 µM
IC50 [15]: 10 µM
IC50 [16]: 1 µM
IC50 [17]: 100 µM
IC50 [18]: 0.1 µM
IC50 (HT-29 (colon carcinoma)): 0.1 µM
IC50 (L1210 (mouse leukaemia)): 10 µM
IC50 [19]: 10 µM
IC50 [20]: 0.001 µM
IC50 (SK (melanoma)): 10 µM
cytotoxicity (in words) [21]: lower cytotoxicities
IC50 [22]: 100 µM
IC50 (SIHA (cervix carcinoma)): 100 µM
IC50 (Capan-1 (pancreatic)): 0.1 µM
IC50 [23]: 0.1 µM
IC50 [24]: 100 µM
IC50 (NHDF (normal human skin)): 1 µM
IC50 (H322 (lung carcinoma) [25]): 0.1 µM
IC50 (MCF-7 (breast carcinoma) [26]): 10 µM
IC50 [27]: < 0.001 µM
